Source: paper PMC3511402, “Structural and Biochemical Studies on ATP Binding and Hydrolysis by the Escherichia coli RNA Chaperone Hfq” (PLoS ONE, 2012)

Columns and labels:
[1] = molecular target: T1, Hfq65 (Escherichia coli, UniProt P0A6X3); assay: X-ray crystal structure, […] Å; type: binding; settings: distal-face R-sites, four of six sites occupied; ATP 1:1 per subunit; Hepes pH ~7.5
T1 construct: gene hfq; C-terminally truncated, aa 1-65; plasmid pUHfq65 expressed in E. coli hfq- strain AM111F'; untagged; hexamer
T1 sequence (P0A6X3 1-65): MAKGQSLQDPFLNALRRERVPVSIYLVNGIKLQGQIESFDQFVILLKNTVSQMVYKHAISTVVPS

[2] = molecular target: T2, full length E. coli Hfq (Escherichia coli, UniProt P0A6X3); assay: EMSA competition with […]'-labelled poly(A)[…] RNA; type: binding; settings: 5 nM poly(A)27, 40 nM Hfq hexamer, pH 7.5, 2 mM MgOAc, room temperature; distal site competition
T2 construct: full length, no added His tag (native histidines); plasmid pUH5 in E. coli AM111F' (printed for the ATPase preparations); hexamer
T2 sequence (P0A6X3 2-102): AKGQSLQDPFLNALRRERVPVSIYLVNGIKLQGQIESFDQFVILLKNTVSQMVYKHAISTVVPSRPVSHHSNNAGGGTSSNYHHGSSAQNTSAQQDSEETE

- % RNA released at 10 mM ATP [2]: ~ 50%
SMILES: Nc1ncnc2c1ncn2[C@@H]1O[C@H](COP(=O)(O)OP(=O)(O)OP(=O)(O)O)[C@@H](O)[C@H]1O [ATP]
- X-ray crystal structure, 2.15 Å [1]: electron density corresponding to the ATP molecules was observed in four out of six R-sites
